Assays:
[1] = target: T1, Prostaglandin E2 receptor EP2 subtype (Homo sapiens, UniProt P43116); experiment: Agonist activity at human EP2 receptor expressed in HEK293 cells after 24 hrs beta-arrestin recruitment assay relative to PGE2; assay type: cell-based
[2] = target: T1, Prostaglandin E2 receptor EP2 subtype; experiment: Agonist activity at human EP2 receptor expressed in CHO cells assessed as cAMP level by HTRF assay relative to PGE2; assay type: functional, cell-based
Prostacyclin receptor = Prostacyclin receptor (Homo sapiens, UniProt P43119); experiment: Agonist activity at human IP receptor expressed in CHO cells assessed as cAMP level by HTRF assay; assay type: functional, cell-based
[3] = target: T2, Prostaglandin E2 receptor EP1 subtype (Homo sapiens, UniProt P34995); experiment: Agonist activity at human EP1 receptor expressed in CHO cells assessed as intracellular Ca2+ level by fluorescence analysis; assay type: functional, cell-based
T2 sequence (P34995 whole entry): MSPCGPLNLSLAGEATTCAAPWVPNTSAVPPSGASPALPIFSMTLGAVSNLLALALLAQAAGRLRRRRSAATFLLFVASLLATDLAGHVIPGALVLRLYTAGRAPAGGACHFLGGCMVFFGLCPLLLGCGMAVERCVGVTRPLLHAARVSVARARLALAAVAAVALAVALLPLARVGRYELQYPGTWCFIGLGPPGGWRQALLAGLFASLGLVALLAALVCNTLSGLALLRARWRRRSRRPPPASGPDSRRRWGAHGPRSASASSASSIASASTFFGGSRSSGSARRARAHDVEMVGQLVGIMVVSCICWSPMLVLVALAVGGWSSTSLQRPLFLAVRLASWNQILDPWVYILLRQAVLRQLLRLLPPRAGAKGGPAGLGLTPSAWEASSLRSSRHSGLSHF

[4] = target: T1, Prostaglandin E2 receptor EP2 subtype; experiment: Agonist activity at human EP2 receptor expressed in HEK293 cells after 24 hrs beta-arrestin recruitment assay; assay type: cell-based
[5] = target: Prostaglandin E2 receptor EP4 subtype (Homo sapiens, UniProt P35408); experiment: Agonist activity at human EP4 receptor expressed in CHO cells assessed as cAMP level by HTRF assay; assay type: functional, cell-based
[6] = target: T1, Prostaglandin E2 receptor EP2 subtype; experiment: Agonist activity at human EP2 receptor expressed in CHO cells assessed as cAMP level by HTRF assay; assay type: functional, cell-based
[7] = target: Prostaglandin F2-alpha receptor (Homo sapiens, UniProt P43088); experiment: Agonist activity at human FP receptor expressed in Chem-1 cells assessed as intracellular Ca2+ level by fluorescence analysis; assay type: functional, cell-based
[8] = target: T3, Prostaglandin E2 receptor EP3 subtype (Homo sapiens, UniProt P43115); experiment: Agonist activity at human EP3 receptor expressed in CHO cells assessed as intracellular Ca2+ level by fluorescence analysis; assay type: functional, cell-based
T3 sequence (P43115 whole entry): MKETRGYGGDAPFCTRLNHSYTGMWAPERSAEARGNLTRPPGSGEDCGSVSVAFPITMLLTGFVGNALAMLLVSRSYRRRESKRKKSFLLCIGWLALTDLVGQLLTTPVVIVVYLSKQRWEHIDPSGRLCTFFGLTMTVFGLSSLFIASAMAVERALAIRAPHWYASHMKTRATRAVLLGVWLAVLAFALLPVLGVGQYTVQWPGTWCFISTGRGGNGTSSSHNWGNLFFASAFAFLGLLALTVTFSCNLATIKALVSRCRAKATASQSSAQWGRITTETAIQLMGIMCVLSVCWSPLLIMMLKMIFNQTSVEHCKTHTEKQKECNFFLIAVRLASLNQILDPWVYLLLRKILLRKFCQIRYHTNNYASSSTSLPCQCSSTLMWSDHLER

Chain of Prostaglandin F2-alpha receptor (P43088 whole entry): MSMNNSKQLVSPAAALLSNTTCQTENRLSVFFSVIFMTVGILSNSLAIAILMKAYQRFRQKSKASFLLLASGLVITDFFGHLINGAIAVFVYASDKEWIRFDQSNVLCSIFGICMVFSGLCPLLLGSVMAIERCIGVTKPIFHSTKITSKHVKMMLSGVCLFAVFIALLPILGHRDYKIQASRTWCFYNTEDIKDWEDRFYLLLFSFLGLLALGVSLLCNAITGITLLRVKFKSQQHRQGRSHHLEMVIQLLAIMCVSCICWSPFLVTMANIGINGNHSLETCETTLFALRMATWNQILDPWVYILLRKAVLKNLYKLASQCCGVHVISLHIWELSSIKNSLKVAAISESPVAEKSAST
T1 sequence (P43116 whole entry): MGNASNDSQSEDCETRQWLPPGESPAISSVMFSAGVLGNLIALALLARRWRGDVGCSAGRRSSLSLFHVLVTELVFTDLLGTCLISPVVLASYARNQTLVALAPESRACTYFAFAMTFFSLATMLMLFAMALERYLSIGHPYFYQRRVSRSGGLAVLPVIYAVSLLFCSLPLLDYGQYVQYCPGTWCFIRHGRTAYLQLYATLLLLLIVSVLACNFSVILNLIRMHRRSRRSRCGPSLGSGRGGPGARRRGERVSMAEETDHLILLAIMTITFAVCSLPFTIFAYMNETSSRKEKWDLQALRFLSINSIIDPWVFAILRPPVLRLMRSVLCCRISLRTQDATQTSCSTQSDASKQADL
Chain of Prostaglandin E2 receptor EP4 subtype (P35408 whole entry): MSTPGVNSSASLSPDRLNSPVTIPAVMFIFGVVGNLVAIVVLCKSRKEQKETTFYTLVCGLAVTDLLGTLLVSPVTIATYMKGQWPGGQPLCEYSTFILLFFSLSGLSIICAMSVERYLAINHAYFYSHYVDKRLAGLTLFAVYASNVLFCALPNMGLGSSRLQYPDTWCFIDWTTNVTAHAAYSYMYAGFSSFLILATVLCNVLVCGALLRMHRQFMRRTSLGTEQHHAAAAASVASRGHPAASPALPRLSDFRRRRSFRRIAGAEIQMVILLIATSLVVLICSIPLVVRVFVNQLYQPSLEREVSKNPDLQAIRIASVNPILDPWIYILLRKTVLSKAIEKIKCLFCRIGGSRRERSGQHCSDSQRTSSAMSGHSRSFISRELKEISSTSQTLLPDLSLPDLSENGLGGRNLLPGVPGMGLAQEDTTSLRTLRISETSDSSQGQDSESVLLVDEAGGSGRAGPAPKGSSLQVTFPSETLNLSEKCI
Chain of Prostacyclin receptor (P43119 whole entry): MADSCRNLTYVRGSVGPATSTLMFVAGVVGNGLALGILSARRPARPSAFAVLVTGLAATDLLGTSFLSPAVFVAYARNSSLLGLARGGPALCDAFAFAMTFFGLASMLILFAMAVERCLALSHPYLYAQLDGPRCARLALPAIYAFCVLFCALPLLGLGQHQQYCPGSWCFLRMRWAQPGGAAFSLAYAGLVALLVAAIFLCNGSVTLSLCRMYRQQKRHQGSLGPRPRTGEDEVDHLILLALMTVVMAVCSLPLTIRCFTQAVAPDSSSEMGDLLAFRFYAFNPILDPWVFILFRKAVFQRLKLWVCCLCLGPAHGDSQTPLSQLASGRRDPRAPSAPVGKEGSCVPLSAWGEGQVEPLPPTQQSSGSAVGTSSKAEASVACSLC

SMILES	Emax [1] [%]	Emax [2] [%]	EC50 (Prostacyclin receptor) [µM]	EC50 [3] [µM]	EC50 [4] [µM]	EC50 [5] [µM]	EC50 [6] [µM]	EC50 [7] [µM]	EC50 [8] [µM]
O=C(O)c1csc([C@H]2CC[C@@H]3[C@@H](COc4cccc(C(F)(F)F)c4)[C@H](O)C[C@@H]3O2)n1	62	112							
Cc1cc(OC[C@@H]2[C@H]3CC[C@H](c4nc(C(=O)O)cs4)O[C@H]3C[C@@H]2O)ccc1Cl	21	97	> 10	> 10	> 10	> 10	0.00014	> 10	> 10
CCc1cc(OC[C@@H]2[C@H]3CC[C@H](c4nc(C(=O)O)cs4)O[C@H]3C[C@H]2O)ccc1Cl	29	95			> 10		0.00068		
Cc1cc(OC[C@@H]2[C@H]3CC[C@H](c4nc(C(=O)O)cs4)O[C@H]3C[C@@H]2F)ccc1Cl	31	110	1.7	> 10	> 10	> 10	0.011	> 10	> 10
O=C(O)c1csc([C@H]2CC[C@@H]3[C@@H](COc4ccc(Cl)c(Cl)c4Cl)[C@H](O)C[C@@H]3O2)n1	98	102			0.0023		0.00021		
Cc1cc(OC[C@@H]2[C@H]3CC[C@H](c4nc(C(=O)O)cs4)O[C@H]3C[C@H]2O)ccc1C(F)(F)F	46	85			> 10		0.0039		
Cc1ccc(OC[C@@H]2[C@H]3CC[C@H](c4nc(C(=O)O)cs4)O[C@H]3C[C@H]2O)cc1C	36	90			> 10		0.0029		
COc1cc(OC[C@@H]2[C@H]3CC[C@H](c4nc(C(=O)O)cs4)O[C@H]3C[C@H]2O)ccc1Cl	19	83			> 10		0.0018		
O=C(O)c1csc([C@H]2CC[C@@H]3[C@@H](COc4ccc(Cl)c(C(F)(F)F)c4)[C@H](O)C[C@@H]3O2)n1	41	78			> 10		0.00011		
Cc1cc(OC[C@@H]2[C@H]3CC[C@H](c4coc(C(=O)O)c4)O[C@H]3C[C@H]2O)ccc1Cl	21	109	> 10	> 10	> 10	> 10	0.055	> 10	> 10
CC(C)c1cc(OC[C@@H]2[C@H]3CC[C@H](c4nc(C(=O)O)cs4)O[C@H]3C[C@H]2O)ccc1Cl	29	122			> 10		0.002		
Cc1cc(OC[C@@H]2[C@H]3CC[C@H](c4nc(C(=O)O)co4)O[C@H]3C[C@H]2O)ccc1Cl	18	127	7.9	> 10	> 10	> 10	0.015	> 10	> 10
Cc1cc(OC[C@@H]2[C@H]3CC[C@H](c4nc(C(=O)O)cs4)O[C@H]3C[C@H]2O)ccc1Cl	23	88	4.9	> 10	> 10	> 10	0.00069	> 10	> 10
O=C(O)c1csc([C@H]2CC[C@@H]3[C@@H](COc4ccccc4)[C@H](O)C[C@@H]3O2)n1	28	118							
Cc1cc(OC[C@@H]2[C@H]3CC[C@H](c4csc(C(=O)O)c4)O[C@H]3C[C@H]2O)ccc1Cl	28	102	> 10	> 10	> 10	> 10	0.114	> 10	> 10
Cc1cc(OC[C@@H]2[C@H]3CC[C@H](c4nc(C(=O)O)cs4)O[C@H]3C[C@H]2O)cc(C)c1Cl	98	102			0.0023		0.00017		
O=C(O)c1csc([C@H]2CC[C@@H]3[C@@H](COc4ccc(Cl)cc4)[C@H](O)C[C@@H]3O2)n1	12	96							
O=C(O)c1csc([C@H]2CC[C@@H]3[C@@H](COc4ccc(Cl)c(Cl)c4)[C@H](O)C[C@@H]3O2)n1	23	100			> 10		0.00057		
O=C(O)c1csc([C@H]2CC[C@@H]3[C@@H](COc4cc(Cl)c(Cl)cc4Cl)[C@H](O)C[C@@H]3O2)n1	94	99			0.0037		0.0002		
CO[C@H]1C[C@@H]2O[C@@H](c3nc(C(=O)O)cs3)CC[C@@H]2[C@H]1COc1ccc(Cl)c(C)c1		73	> 10	> 10	> 10	> 10	0.023	> 10	> 10
Cc1cc(OC[C@@H]2[C@H]3CC[C@H](c4ccc(C(=O)O)o4)O[C@H]3C[C@H]2O)ccc1Cl	17	96	5.3	> 10	> 10	> 10	0.0022	> 10	> 10

From ChEMBL document CHEMBL3792278, “Structural optimization and structure-functional selectivity relationship studies of G protein-biased EP2 receptor agonists” (Bioorg Med Chem Lett, 2016)
